Data: publication PMC7180948, “New Insights into 4-Anilinoquinazolines as Inhibitors of Cardiac Troponin I–Interacting Kinase (TNNi3K)” (Molecules, 2020)

Tests used:
Assay in all cases: biochemical
Set-up in all cases: KINOMEscan competition binding panel (Eurofins DiscoverX), single concentration, percent inhibition
Settings in all cases: read-out: 15 at 1 µM % inhibition
DLK = target: T1, DLK (Homo sapiens, UniProt Q12852)
T1 construct: gene MAP3K12
How it was run: (§1)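 KINOMEscan binding panel of >400 kinases, run by Eurofins DiscoverX, with compounds tested at a single concentration of 1 µM.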

MEK3 = target: T2, MEK3 (Homo sapiens, UniProt P46734)
T2 construct: gene MAP2K3
How it was run: as §1

SRPK3 = SRPK3 (Homo sapiens, UniProt Q9UPE1)
How it was run: as §1

PIKFYVE = PIKFYVE (Homo sapiens, UniProt Q9Y2I7)
How it was run: as §1

TAOK3 = TAOK3 (Homo sapiens, UniProt Q9H2K8)
How it was run: as §1

RIPK2 = RIPK2 (Homo sapiens, UniProt O43353)
How it was run: as §1

EGFR(L747-T751del,Sins) = EGFR(L747-T751del,Sins) (Homo sapiens, UniProt P00533, DEL747-750/T751S)
How it was run: as §1

[1] = target: T3, TYK2(JH2domain-pseudokinase) (Homo sapiens, UniProt P29597)
T3 construct: JH2domain-pseudokinase
How it was run: as §1

TLK1 = TLK1 (Homo sapiens, UniProt Q9UKI8)
How it was run: as §1

FGFR2 = FGFR2 (Homo sapiens, UniProt P21802)
How it was run: as §1

[2] = target: T4, ABL1(H396P)-phosphorylated (Homo sapiens, UniProt P00519, H396P)
T4 construct: phosphorylated
How it was run: as §1

WNK4 = WNK4 (Homo sapiens, UniProt Q96J92)
How it was run: as §1

DYRK1B = DYRK1B (Homo sapiens, UniProt Q9Y463)
How it was run: as §1

RET(V804L) = RET(V804L) (Homo sapiens, UniProt P07949, V804L)
How it was run: as §1

EPHB4 = EPHB4 (Homo sapiens, UniProt P54760)
How it was run: as §1

FYN = FYN (Homo sapiens, UniProt P06241)
How it was run: as §1

CLK3 = CLK3 (Homo sapiens, UniProt P49761)
How it was run: as §1

MET(Y1235D) = MET(Y1235D) (Homo sapiens, UniProt P08581, Y1235D)
How it was run: as §1

BMPR2 = BMPR2 (Homo sapiens, UniProt Q13873)
How it was run: as §1

FLT3(ITD,D835V) = FLT3(ITD,D835V) (Homo sapiens, UniProt P36888, D835V/ITD)
How it was run: as §1

RIOK3 = RIOK3 (Homo sapiens, UniProt O14730)
How it was run: as §1

PFTAIRE2 = target: T5, PFTAIRE2 (Homo sapiens, UniProt Q96Q40)
T5 construct: gene CDK15
How it was run: as §1

JNK2 = target: T6, JNK2 (Homo sapiens, UniProt P45984)
T6 construct: gene MAPK9
How it was run: as §1

EPHA2 = EPHA2 (Homo sapiens, UniProt P29317)
How it was run: as §1

Chain of CLK3 (P49761 whole entry): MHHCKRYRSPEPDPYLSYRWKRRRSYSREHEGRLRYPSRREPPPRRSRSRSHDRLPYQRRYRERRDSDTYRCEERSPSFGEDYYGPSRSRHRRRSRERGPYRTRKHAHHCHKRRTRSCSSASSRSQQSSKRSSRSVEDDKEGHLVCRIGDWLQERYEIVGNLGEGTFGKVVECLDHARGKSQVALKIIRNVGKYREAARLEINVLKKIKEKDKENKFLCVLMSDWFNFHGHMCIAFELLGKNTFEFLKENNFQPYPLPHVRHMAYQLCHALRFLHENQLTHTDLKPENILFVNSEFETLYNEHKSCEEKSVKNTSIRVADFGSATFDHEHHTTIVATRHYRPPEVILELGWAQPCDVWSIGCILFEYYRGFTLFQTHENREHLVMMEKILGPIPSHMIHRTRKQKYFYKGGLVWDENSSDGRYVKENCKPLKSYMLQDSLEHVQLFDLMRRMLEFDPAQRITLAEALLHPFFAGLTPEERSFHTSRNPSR
Chain of RIPK2 (O43353 whole entry): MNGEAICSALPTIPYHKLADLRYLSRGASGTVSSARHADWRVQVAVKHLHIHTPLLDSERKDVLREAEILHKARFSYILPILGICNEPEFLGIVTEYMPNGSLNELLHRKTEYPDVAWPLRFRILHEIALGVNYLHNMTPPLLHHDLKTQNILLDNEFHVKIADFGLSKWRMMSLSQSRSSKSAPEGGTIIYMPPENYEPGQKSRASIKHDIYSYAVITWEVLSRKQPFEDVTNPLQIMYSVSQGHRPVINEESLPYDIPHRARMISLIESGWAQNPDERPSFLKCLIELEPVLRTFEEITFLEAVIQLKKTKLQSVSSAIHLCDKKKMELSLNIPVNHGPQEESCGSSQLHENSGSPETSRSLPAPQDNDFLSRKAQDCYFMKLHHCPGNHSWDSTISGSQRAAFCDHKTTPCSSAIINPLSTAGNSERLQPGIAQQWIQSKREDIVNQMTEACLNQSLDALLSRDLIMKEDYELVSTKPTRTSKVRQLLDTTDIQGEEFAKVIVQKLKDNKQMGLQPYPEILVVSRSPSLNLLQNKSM
Chain of RIOK3 (O14730 whole entry): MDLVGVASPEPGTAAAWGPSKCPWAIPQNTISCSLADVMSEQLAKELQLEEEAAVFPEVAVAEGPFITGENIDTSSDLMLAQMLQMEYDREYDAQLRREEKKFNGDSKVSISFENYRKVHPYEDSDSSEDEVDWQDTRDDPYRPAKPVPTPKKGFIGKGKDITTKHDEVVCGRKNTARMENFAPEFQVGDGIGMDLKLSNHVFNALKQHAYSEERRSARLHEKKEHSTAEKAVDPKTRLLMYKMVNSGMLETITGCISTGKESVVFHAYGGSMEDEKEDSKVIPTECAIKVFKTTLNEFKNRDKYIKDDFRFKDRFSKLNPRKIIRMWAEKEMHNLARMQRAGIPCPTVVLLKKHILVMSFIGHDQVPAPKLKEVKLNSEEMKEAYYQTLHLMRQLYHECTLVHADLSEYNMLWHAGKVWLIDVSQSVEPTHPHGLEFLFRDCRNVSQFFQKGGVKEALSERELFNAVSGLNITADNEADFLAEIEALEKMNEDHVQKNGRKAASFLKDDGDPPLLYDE
Chain of RET(V804L) (P07949 whole entry V804L): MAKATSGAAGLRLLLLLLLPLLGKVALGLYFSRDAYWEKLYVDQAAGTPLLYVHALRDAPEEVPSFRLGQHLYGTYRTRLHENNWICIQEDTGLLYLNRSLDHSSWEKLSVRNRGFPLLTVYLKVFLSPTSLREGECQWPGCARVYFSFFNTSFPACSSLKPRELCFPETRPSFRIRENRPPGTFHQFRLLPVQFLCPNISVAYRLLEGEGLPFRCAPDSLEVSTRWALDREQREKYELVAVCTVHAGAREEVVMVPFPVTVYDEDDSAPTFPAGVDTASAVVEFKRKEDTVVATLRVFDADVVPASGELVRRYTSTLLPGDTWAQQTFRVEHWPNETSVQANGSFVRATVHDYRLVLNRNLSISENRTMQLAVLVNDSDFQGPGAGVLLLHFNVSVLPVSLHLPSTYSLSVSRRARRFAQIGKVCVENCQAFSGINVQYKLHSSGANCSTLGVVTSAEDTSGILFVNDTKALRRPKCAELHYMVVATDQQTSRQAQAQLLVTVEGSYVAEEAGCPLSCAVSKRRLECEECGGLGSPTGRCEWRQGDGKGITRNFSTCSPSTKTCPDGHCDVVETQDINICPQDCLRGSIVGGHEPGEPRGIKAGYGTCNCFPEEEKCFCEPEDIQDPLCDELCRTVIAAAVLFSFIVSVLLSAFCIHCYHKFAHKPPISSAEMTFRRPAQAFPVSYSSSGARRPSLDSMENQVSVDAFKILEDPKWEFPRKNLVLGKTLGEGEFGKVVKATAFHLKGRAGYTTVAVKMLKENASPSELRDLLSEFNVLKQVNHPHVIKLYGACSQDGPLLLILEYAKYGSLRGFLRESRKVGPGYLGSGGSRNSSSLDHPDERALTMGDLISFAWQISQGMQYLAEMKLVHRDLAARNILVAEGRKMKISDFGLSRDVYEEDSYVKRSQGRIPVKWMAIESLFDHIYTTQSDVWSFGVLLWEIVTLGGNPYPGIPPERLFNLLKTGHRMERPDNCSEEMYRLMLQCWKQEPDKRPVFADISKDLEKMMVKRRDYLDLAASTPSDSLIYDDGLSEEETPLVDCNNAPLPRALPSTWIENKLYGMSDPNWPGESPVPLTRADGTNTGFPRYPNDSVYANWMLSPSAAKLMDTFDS
T3 sequence (P29597 whole entry): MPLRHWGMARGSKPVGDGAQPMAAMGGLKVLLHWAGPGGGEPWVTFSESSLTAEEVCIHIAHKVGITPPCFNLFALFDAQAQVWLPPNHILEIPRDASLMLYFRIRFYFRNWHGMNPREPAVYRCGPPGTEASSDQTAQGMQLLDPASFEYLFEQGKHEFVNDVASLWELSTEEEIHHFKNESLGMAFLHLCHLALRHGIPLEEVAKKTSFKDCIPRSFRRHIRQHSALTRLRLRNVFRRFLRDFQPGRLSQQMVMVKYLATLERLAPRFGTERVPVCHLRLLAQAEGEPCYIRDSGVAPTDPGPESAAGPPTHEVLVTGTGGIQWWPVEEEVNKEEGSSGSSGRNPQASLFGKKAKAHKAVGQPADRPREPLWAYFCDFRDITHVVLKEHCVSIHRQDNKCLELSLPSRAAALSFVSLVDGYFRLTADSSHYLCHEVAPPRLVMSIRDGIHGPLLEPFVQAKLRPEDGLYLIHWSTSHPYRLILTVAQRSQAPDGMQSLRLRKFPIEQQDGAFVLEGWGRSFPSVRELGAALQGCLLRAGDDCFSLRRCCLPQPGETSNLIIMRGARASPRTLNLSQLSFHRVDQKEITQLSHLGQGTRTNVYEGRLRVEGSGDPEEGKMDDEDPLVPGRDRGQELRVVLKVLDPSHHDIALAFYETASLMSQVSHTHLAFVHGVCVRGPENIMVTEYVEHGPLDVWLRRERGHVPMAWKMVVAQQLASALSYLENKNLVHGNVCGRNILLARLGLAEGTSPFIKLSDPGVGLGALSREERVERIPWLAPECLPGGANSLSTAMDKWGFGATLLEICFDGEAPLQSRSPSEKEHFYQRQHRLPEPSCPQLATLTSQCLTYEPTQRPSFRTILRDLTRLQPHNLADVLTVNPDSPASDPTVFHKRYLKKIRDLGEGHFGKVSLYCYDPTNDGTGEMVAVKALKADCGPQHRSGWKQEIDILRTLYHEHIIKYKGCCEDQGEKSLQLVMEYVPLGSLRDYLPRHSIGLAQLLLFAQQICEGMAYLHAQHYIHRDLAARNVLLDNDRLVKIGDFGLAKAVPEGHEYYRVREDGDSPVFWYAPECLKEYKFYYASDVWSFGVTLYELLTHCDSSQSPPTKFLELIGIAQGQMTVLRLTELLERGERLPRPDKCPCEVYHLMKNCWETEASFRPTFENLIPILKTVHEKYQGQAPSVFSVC
Chain of WNK4 (Q96J92 whole entry): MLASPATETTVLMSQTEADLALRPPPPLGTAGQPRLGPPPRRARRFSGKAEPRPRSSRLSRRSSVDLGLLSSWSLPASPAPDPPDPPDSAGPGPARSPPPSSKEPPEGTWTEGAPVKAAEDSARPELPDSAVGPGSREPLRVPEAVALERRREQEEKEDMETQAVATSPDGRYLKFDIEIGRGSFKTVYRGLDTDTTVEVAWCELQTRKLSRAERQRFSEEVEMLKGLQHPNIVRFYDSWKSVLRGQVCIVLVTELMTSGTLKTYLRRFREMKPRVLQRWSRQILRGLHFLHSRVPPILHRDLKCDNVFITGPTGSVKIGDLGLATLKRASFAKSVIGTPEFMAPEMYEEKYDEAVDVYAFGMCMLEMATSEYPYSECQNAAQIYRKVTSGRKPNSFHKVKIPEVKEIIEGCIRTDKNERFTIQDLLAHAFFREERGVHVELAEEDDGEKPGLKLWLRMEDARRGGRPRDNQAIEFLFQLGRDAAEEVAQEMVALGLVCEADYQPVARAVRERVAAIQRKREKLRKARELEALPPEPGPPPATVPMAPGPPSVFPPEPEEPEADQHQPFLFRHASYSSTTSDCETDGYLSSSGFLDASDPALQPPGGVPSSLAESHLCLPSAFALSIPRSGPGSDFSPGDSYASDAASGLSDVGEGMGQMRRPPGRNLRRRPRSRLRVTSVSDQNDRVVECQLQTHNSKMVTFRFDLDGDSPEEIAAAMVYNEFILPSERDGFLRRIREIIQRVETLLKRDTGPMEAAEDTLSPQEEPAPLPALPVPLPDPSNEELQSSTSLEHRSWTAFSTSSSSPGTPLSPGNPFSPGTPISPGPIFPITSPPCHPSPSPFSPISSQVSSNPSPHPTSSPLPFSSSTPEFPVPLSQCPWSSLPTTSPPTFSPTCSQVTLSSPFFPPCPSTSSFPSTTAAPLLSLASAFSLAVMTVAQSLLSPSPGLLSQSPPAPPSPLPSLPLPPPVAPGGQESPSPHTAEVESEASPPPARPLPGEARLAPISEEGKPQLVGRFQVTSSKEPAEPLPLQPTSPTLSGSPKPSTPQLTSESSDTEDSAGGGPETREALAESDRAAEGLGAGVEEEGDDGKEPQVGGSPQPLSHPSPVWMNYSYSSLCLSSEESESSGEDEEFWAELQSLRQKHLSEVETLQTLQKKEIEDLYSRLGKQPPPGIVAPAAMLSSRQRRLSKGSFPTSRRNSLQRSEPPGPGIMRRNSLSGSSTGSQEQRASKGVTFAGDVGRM

inhibition at 1 µM (DLK): 12% | inhibition at 1 µM (MEK3): 22% | inhibition at 1 µM (SRPK3): 1% | inhibition at 1 µM (PIKFYVE): 13% | inhibition at 1 µM (TAOK3): 16% | inhibition at 1 µM (RIPK2): 4% | inhibition at 1 µM (EGFR(L747-T751del,Sins)): 0% | inhibition at 1 µM [1]: 0% | inhibition at 1 µM (TLK1): 9% | inhibition at 1 µM (FGFR2): 0% | inhibition at 1 µM [2]: 0% | inhibition at 1 µM (WNK4): 0% | inhibition at 1 µM (DYRK1B): 17% | inhibition at 1 µM (RET(V804L)): 0% | inhibition at 1 µM (EPHB4): 0% | inhibition at 1 µM (FYN): 0% | inhibition at 1 µM (CLK3): 0% | inhibition at 1 µM (MET(Y1235D)): 0% | inhibition at 1 µM (BMPR2): 21% | inhibition at 1 µM (FLT3(ITD,D835V)): 26% | inhibition at 1 µM (RIOK3): 0% | inhibition at 1 µM (PFTAIRE2): 5% | inhibition at 1 µM (JNK2): 4% | inhibition at 1 µM (EPHA2): 0%
SMILES: CNS(=O)(=O)c1ccc(N(C)C)c(Nc2nc(C)nc3cc(OC)c(OC)cc23)c1 [compound 15, 3-((6,7-dimethoxy-2-methylquinazolin-4-yl)amino)-4-(dimethylamino)-N-methylbenzenesulfonamide]
